≈ marks a conversion by molar mass, not a printed value. Non-standard residues stand in square brackets, D forms with d. Residues, ends and D or L forms follow the SMILES beside them. hLeu = CC(C)CC[C@H](N)C(=O)O; AEA = NCCOCC(=O)O; Ava = NCCCCC(=O)O
Experiments:
Details in all cases: 24 h
C. albicans = tested on: C. albicans
C. glabrata = tested on: C. glabrata
C. parapsilosis = tested on: C. parapsilosis
C. krusei = tested on: C. krusei
C. auris = tested on: C. auris
C. tropicalis = tested on: C. tropicalis
C. dubliniensis = tested on: C. dubliniensis

Compound	MIC C. albicans (C. albicans)	MIC C. glabrata (C. glabrata)	MIC C. parapsilosis (C. parapsilosis)	MIC C. krusei (C. krusei)	MIC C. auris (C. auris)	MIC C. tropicalis (C. tropicalis)	MIC C. dubliniensis (C. dubliniensis)
N=C(N)NCCC[C@@H](N)C(=O)N[C@@H](CCCNC(=N)N)C(=O)N[C@H](CCCNC(=N)N)C(=O)NCCNCC(=O)N[C@H](CCCNC(=N)N)C(=O)N[C@@H](CCCNC(=N)N)C(=O)N[C@H](CCCNC(=N)N)C(=O)NCCNCC(=O)N[C@H](CCCNC(=N)N)C(=O)N[C@@H](CCCNC(=N)N)C(=O)N[C@H](CCCNC(=N)N)C(=O)N[C@@H](CCCNC(=N)N)C(=O)NCCNCC(=O)N[C@H](CCCNC(=N)N)C(=O)N[C@@H](CCCNC(=N)N)C(=O)N[C@H](CCCNC(=N)N)C(=O)N[C@@H](CCCNC(=N)N)C(N)=O [SEQ ID NO: 46, rRr-(Aeg)-rRr-(Aeg)-rRrR-(Aeg)-rRrR-NH2]	0.5 µg/mL (≈ 0.2 µM)	1 µg/mL (≈ 0.399 µM)	0.25 µg/mL (≈ 0.0998 µM)	0.5 µg/mL (≈ 0.2 µM)	8 µg/mL (≈ 3.19 µM)	0.5 µg/mL (≈ 0.2 µM)	0.5 µg/mL (≈ 0.2 µM)
N=C(N)NCCC[C@@H](N)C(=O)N[C@@H](CCCNC(=N)N)C(=O)N[C@H](CCCNC(=N)N)C(=O)NCCCCC(=O)N[C@H](CCCNC(=N)N)C(=O)N[C@@H](CCCNC(=N)N)C(=O)N[C@H](CCCNC(=N)N)C(=O)NCCOCC(=O)N[C@H](CCCNC(=N)N)C(=O)N[C@@H](CCCNC(=N)N)C(=O)N[C@H](CCCNC(=N)N)C(=O)N[C@@H](CCCNC(=N)N)C(=O)NCCOCC(=O)N[C@H](CCCNC(=N)N)C(=O)N[C@@H](CCCNC(=N)N)C(=O)N[C@H](CCCNC(=N)N)C(=O)N[C@@H](CCCNC(=N)N)C(N)=O [SEQ ID NO: 51, rRr-(Ava)-rRr-(Aea)-rRrR-(Aea)-rRrR-NH2] (H-[dR]R[dR][Ava][dR]R[dR][AEA][dR]R[dR]R[AEA][dR]R[dR]R-NH2)	0.5 µg/mL (≈ 0.2 µM)	1 µg/mL (≈ 0.399 µM)	0.25 µg/mL (≈ 0.0998 µM)	–	–	0.5 µg/mL (≈ 0.2 µM)	0.25 µg/mL (≈ 0.0998 µM)
CC(C)CC[C@H](NC(=O)[C@@H](CCCNC(=N)N)NC(=O)[C@H](CCCNC(=N)N)NC(=O)[C@@H](CCCNC(=N)N)NC(=O)[C@@H]1CCCN1C(=O)[C@H](CCCNC(=N)N)NC(=O)[C@@H](CCCNC(=N)N)NC(=O)[C@H](CCCNC(=N)N)NC(=O)[C@@H](CCCNC(=N)N)NC(=O)[C@@H]1CCCN1C(=O)[C@@H](CCCNC(=N)N)NC(=O)[C@H](CCCNC(=N)N)NC(=O)[C@@H](CCCNC(=N)N)NC(=O)[C@@H]1CCCN1C(=O)[C@@H](CCCNC(=N)N)NC(=O)[C@H](CCCNC(=N)N)NC(=O)[C@H](N)CCCNC(=N)N)C(N)=O [SEQ ID NO: 93, rRr-P-rRr-P-rRrR-P-rRr(hLeu)-NH2] (H-[dR]R[dR]P[dR]R[dR]P[dR]R[dR]RP[dR]R[dR][hLeu]-NH2)	0.5 µg/mL (≈ 0.203 µM)	1 µg/mL (≈ 0.406 µM)	1 µg/mL (≈ 0.406 µM)	–	–	0.5 µg/mL (≈ 0.203 µM)	0.5 µg/mL (≈ 0.203 µM)
CC(C)CC[C@H](NC(=O)[C@@H](CCCNC(=N)N)NC(=O)[C@H](CCCNC(=N)N)NC(=O)[C@@H](CCCNC(=N)N)NC(=O)[C@@H]1CCCN1C(=O)[C@H](CCCNC(=N)N)NC(=O)[C@@H](CCCNC(=N)N)NC(=O)[C@H](CCCNC(=N)N)NC(=O)[C@@H](CCCNC(=N)N)NC(=O)[C@@H]1CCCN1C(=O)[C@@H](CCCNC(=N)N)NC(=O)[C@H](CCCNC(=N)N)NC(=O)[C@@H](CCCNC(=N)N)NC(=O)[C@@H]1CCCN1C(=O)[C@@H](CCCNC(=N)N)NC(=O)[C@H](CCCNC(=N)N)NC(=O)[C@@H](N)CCC(C)C)C(N)=O [SEQ ID NO: 95, (hLeu)Rr-P-rRr-P-rRrR-P-rRr(hLeu)-NH2] (H-[hLeu]R[dR]P[dR]R[dR]P[dR]R[dR]RP[dR]R[dR][hLeu]-NH2)	1 µg/mL (≈ 0.41 µM)	0.5 µg/mL (≈ 0.205 µM)	1 µg/mL (≈ 0.41 µM)	–	–	1 µg/mL (≈ 0.41 µM)	0.5 µg/mL (≈ 0.205 µM)
rR-(Apg)-rR-(Apg)-rRr-(Apg)-rRr-NH2 [SEQ ID NO: 39]	0.25 µg/mL	8 µg/mL	0.12 µg/mL	–	–	0.25 µg/mL	0.12 µg/mL
